Two molecules from PMC8213057, “Targeting ALK2: An Open Science Approach to Developing Therapeutics for the Treatment of Diffuse Intrinsic Pontine Glioma” (Journal of Medicinal Chemistry, 2020) can be followed below.

One assay deals with T1, RIPK4 (Homo sapiens, UniProt P57078).
T1 sequence (P57078 1-832): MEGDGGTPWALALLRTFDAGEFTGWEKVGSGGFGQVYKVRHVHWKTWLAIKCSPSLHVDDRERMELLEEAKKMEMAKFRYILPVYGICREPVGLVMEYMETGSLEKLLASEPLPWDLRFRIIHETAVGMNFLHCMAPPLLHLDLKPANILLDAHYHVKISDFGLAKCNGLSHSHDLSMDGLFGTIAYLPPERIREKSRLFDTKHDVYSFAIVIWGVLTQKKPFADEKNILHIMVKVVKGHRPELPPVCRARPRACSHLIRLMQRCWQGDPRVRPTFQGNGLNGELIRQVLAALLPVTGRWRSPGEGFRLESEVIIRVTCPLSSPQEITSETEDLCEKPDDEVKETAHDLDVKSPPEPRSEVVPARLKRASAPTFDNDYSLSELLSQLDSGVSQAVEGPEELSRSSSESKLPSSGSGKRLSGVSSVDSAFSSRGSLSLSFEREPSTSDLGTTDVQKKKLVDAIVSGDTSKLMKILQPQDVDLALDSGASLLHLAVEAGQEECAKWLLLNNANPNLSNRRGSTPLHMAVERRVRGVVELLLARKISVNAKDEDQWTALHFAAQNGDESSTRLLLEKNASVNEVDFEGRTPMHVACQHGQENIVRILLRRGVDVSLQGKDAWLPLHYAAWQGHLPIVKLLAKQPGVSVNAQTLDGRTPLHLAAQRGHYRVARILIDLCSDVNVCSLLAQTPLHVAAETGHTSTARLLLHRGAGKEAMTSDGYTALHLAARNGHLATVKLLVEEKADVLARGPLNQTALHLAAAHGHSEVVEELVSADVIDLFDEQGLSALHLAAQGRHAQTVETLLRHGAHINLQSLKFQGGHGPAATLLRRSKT
The assay can be described thus: biochemical. Particulars: read-out: % enzyme activity, 1 μM; Run 1, Run 2.

Another assay deals with SIK3 (Homo sapiens, UniProt Q9Y2K2). In words: biochemical. The settings on record: read-out: % enzyme activity, 1 μM; Run 1, Run 2.
The target of the next assay is T2, MYO3b (Homo sapiens, UniProt Q8WXR4).
T2 sequence (Q8WXR4 1-1341): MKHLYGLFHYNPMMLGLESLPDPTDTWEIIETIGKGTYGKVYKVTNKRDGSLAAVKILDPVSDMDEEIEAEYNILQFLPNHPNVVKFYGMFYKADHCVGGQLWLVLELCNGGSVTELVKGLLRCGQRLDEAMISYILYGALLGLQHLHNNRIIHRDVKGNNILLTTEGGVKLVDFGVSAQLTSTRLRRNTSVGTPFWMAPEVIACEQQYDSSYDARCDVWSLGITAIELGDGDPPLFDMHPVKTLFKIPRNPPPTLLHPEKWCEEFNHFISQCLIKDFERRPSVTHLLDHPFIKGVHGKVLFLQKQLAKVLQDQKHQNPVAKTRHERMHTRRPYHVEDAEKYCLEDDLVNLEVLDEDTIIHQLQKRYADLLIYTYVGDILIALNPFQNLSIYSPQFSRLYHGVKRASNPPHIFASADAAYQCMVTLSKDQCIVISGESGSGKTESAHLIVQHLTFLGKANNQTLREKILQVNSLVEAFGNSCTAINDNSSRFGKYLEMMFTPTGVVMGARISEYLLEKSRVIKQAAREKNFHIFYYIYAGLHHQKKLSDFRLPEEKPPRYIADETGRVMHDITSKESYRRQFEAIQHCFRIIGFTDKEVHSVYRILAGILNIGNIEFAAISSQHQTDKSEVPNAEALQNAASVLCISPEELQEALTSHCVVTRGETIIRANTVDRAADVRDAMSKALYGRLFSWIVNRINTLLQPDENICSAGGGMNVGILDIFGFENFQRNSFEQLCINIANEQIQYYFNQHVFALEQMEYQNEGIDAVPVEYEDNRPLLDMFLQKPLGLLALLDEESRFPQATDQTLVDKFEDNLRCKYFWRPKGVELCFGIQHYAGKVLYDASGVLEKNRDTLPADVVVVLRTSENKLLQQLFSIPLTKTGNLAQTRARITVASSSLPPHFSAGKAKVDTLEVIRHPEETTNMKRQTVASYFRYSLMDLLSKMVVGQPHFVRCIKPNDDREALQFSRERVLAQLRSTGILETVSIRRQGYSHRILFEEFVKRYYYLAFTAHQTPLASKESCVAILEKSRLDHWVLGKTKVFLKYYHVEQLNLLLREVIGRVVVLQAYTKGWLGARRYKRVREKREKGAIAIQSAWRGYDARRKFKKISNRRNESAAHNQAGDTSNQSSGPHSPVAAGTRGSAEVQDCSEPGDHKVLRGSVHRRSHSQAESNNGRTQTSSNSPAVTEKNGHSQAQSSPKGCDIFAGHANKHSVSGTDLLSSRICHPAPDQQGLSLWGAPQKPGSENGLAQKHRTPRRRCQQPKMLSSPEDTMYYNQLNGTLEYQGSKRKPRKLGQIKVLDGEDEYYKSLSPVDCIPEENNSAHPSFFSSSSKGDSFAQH
Particulars: 1 μM; Run 1, Run 2.

Another assay has as its target T3, TLK1 (Homo sapiens, UniProt Q9UKI8).
T3 sequence (Q9UKI8 1-766): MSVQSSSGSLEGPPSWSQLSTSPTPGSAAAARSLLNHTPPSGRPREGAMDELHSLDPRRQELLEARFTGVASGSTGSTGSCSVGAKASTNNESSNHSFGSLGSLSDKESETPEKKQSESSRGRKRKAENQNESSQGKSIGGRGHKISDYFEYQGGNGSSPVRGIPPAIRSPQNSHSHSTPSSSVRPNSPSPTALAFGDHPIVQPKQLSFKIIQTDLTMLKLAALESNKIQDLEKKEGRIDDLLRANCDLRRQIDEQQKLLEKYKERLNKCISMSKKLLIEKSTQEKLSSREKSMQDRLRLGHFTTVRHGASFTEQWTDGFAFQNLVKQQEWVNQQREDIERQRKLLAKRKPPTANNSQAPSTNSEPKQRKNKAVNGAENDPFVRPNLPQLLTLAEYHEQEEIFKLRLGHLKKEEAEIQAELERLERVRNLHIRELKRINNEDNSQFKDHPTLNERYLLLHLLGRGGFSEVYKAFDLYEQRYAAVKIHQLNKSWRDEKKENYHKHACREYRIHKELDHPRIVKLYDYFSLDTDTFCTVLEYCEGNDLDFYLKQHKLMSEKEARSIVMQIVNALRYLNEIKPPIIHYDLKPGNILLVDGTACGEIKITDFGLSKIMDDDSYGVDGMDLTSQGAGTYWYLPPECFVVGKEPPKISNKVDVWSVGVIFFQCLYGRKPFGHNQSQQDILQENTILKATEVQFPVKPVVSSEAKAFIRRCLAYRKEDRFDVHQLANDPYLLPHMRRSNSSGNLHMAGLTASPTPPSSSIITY
The assay can be described thus: biochemical. Particulars: read-out: % enzyme activity, 1 μM; Run 1, Run 2.

Structures are written as SMILES.

Sequence of SIK3 (Q9Y2K2 whole entry): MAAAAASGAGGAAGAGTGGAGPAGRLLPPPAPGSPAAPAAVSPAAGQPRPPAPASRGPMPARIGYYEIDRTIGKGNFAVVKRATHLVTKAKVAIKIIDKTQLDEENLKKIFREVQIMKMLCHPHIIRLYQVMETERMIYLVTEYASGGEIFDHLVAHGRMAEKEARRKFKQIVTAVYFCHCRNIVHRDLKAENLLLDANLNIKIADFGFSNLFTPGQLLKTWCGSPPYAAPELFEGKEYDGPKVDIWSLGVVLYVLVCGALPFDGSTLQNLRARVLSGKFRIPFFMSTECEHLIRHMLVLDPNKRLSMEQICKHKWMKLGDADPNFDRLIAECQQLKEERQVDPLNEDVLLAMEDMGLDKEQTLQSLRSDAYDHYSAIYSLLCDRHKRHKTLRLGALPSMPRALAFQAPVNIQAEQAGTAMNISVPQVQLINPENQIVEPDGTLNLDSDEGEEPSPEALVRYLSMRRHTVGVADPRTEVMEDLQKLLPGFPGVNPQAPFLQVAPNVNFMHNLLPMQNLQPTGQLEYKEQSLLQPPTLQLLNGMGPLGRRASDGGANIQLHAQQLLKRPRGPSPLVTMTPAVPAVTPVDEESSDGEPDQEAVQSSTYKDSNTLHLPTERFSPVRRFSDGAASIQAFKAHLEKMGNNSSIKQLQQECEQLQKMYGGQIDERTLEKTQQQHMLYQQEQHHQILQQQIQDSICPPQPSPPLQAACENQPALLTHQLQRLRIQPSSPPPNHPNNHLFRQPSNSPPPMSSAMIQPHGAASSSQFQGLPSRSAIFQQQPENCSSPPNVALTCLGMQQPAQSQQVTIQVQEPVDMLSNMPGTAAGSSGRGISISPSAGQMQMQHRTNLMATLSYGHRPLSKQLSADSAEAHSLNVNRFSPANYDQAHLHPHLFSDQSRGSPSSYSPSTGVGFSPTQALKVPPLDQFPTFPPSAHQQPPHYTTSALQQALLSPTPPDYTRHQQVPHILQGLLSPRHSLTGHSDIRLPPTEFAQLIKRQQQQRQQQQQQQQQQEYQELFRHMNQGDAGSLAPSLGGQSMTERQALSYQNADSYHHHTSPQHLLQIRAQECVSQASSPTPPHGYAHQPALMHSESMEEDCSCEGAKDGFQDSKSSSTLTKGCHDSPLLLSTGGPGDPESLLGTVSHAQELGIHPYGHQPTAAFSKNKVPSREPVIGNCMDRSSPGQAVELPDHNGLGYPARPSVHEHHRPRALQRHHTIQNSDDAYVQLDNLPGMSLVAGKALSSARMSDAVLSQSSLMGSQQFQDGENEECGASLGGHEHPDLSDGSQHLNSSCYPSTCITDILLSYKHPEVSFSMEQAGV

`COc1cc(-c2cncc(-c3ccc(N4CCN(C)CC4)cc3)c2C)cc(F)c1C(N)=O` [Compound 26a, 2-Fluoro-6-methoxy-4-(4-methyl-5-(4-(4-methylpiperazin-1-yl)phenyl)pyridin-3-yl)benzamide]: the remaining activity at 1 µM on RIPK4 came to 75.5%; at SIK3 it was 59.5%; on TLK1, 108%. At MYO3b, the “% enzyme activity” value is given as 81.31%.
The like results for `COc1cc(-c2cncc(-c3ccc(N4C[C@@H](C)N(C)[C@@H](C)C4)cc3)c2C)cc(F)c1C(N)=O` [Compound 26c, 2-Fluoro-6-methoxy-4-(4-methyl-5-(4-((3R,5S)-3,4,5-trimethylpiperazin-1-yl)phenyl)pyridin-3-yl)benzamide] were, in that order, 86.1%, 89%, 104% and 85.13%.
